Measurements published in US9133168B2, “Pyrimidine derivatives, preparation thereof, and pharmaceutical use thereof as akt(pkb) phosphorylation inhibitors” (SANOFI, priority 2010, dated 2015).

test system: AKT protein phosphorylated on serine 473 (P-AKT-S473) in PC3 human prostate carcinoma cells; experiment: pAKT expression in PC3 human prostate carcinoma cells, MSD Multi-spot Biomarker detection (Test A); type: cell-based; conditions: Homo sapiens, PC-3, PC3 cells, 1 to 2 h incubation, P-AKT-S473, absolute IC50, mean of two independent experiments
How it was run: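 Lysate pAKT-S473 measured by electrochemiluminescent sandwich immunoassay; inhibition versus cell-free background and DMSO-only wells, IC50 averaged over two experiments.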

For `O=C(Cc1nc(N2CCOCC2)cc(=O)[nH]1)N1CCc2c(N3CCOCC3)cccc21` [Example 33d, 6-(morpholin-4-yl)-2-{2-[4-(morpholin-4-yl)-2,3-dihydro-1H-indol-1-yl]-2-oxoethyl}pyrimidin-4(3H)-one], which IC50 is on record?
Its IC50 is 111 nM.

How did the IC50 turn out when `CC1Cc2c(ccc(F)c2Cl)N1C(=O)Cc1nc(N2CCOCC2)c(F)c(=O)[nH]1` (centres unmarked) [Example 34a, 5-Fluoro-2-[2-(4-chloro-5-fluoro-2-methyl-2,3-dihydroindol-1-yl)-2-oxoethyl]-6-morpholin-4-yl-3H-pyrimidin-4-one] was run?
The IC50 was 2 nM.

`C[C@H]1Cc2ccccc2N1C(=O)Cc1nc(N2CCOCC2)c(Cl)c(=O)[nH]1` [Example 35a, 5-chloro-2-[2-((S)-2-methyl-2,3-dihydroindol-1-yl)-2-oxoethyl]-6-morpholin-4-yl-3H-pyrimidin-4-one] was tested. Which IC50 did it give?
The IC50 was 140 nM.

Which IC50 does the source give for `C[C@@H]1Cc2ccccc2N1C(=O)Cc1nc(N2CCOCC2)c(Cl)c(=O)[nH]1` [Example 36a, 5-chloro-2-[2-((R)-2-methyl-2,3-dihydroindol-1-yl)-2-oxoethyl]-6-morpholin-4-yl-3H-pyrimidin-4-one] here?
Its IC50 is 55 nM.

`C[C@H]1Cc2ccccc2N1C(=O)Cc1nc(N2CCOCC2)c(Br)c(=O)[nH]1` [Example 37a, 5-bromo-2-[2-((S)-2-methyl-2,3-dihydroindol-1-yl)-2-oxoethyl]-6-morpholin-4-yl-3H-pyrimidin-4-one] was tested. Which IC50 did it give?
The IC50 was 56 nM.

For `O=C(Cc1nc(N2CCOCC2)c(F)c(=O)[nH]1)N1c2ccccc2C[C@@H]1CO` [Example 38a, 5-Fluoro-2-[2-((+)-2-hydroxymethyl-2,3-dihydroindol-1-yl)-2-oxoethyl]-6-morpholin-4-yl-3H-pyrimidin-4-one], which IC50 is on record?
The IC50 was 1140 nM.

Which IC50 does the source give for `O=C(Cc1nc(N2CCOCC2)cc(=O)[nH]1)N1c2ccccc2CC1CF` (stereo not drawn) [Example 38d, 2-[2-((+)-2-Fluoromethyl-2,3-dihydroindol-1-yl)-2-oxoethyl]-6-morpholin-4-yl-3H-pyrimidin-4-one] here?
Its IC50 is 15 nM.

`O=C(Cc1nc(N2CCOCC2)c(F)c(=O)[nH]1)N1c2ccccc2C[C@H]1CO` [Example 39a, 5-Fluoro-2-[2-((−)-2-hydroxymethyl-2,3-dihydroindol-1-yl)-2-oxoethyl]-6-morpholin-4-yl-3H-pyrimidin-4-one] was tested. Which IC50 did it give?
The IC50 was 568 nM.

`O=C(Cc1nc(N2CCOCC2)cc(=O)n1-c1ccccc1)N1CCc2ccccc21` [Example 39d, 2-[2-(2,3-Dihydroindol-1-yl)-2-oxoethyl]-6-morpholin-4-yl-3-phenyl-3H-pyrimidin-4-one] was tested. Which IC50 did it give?
Its IC50 is 51 nM.

Which IC50 does the source give for `CC(C)[C@@H]1Cc2ccccc2N1C(=O)Cc1nc(N2CCOCC2)cc(=O)[nH]1` [Example 40c, (+)-2-[2-(2-isopropyl-2,3-dihydroindol-1-yl)-2-oxoethyl]-6-morpholin-4-yl-3H-pyrimidin-4-one] here?
Its IC50 is 243 nM.

`CC(C(=O)N1CCc2c(F)cccc21)c1nc(N2CCOCC2)cc(=O)[nH]1` (centres unmarked) [Example 41c, 2-[1-(4-fluoro-2,3-dihydro-1H-indol-1-yl)-1-oxopropan-2-yl]-6-(morpholin-4-yl)pyrimidin-4(3H)-one] was tested. Which IC50 did it give?
The IC50 was 29 nM.

Which IC50 does the source give for `Nn1c(CC(=O)N2CCc3ccccc32)nc(N2CCOCC2)cc1=O` [Example 41d, 3-amino-2-[2-(2,3-dihydro-1H-indol-1-yl)-2-oxoethyl]-6-(morpholin-4-yl)pyrimidin-4(3H)-one] here?
Its IC50 is 131 nM.

How did the IC50 turn out when `N#Cn1c(CC(=O)N2CCc3ccccc32)nc(N2CCOCC2)cc1=O` [Example 42d, 2-[2-(2,3-dihydro-1H-indol-1-yl)-2-oxoethyl]-4-(morpholin-4-yl)-6-oxopyrimidine-1(6H)-carbonitrile] was run?
Its IC50 is 24 nM.

For `N#Cc1cccc2c1CCN2C(=O)Cc1nc(N2CCOCC2)cc(=O)[nH]1` [Example 46c, 1-{[4-(morpholin-4-yl)-6-oxo-1,6-dihydropyrimidin-2-yl]acetyl}-2,3-dihydro-1H-indole-4-carbonitrile], which IC50 is on record?
The IC50 was 101 nM.

same assay, conditions: PC3 cells, 1 to 2 h incubation, P-AKT-S473, absolute IC50, mean of two independent experiments

With `CC1Cc2ccc(F)cc2N1C(=O)Cc1nc(N2CCOCC2)cc(=O)[nH]1` (stereo not drawn) [Example 35c, 2-{2-[(+)-6-fluoro-2-methyl-2,3-dihydro-1H-indol-1-yl]-2-oxoethyl}-6-(morpholin-4-yl)pyrimidin-4(3H)-one] as the molecule, how does the IC50 read?
Its IC50 is 27 nM.

For `CC1Cc2ccc(F)cc2N1C(=O)Cc1nc(N2CCOCC2)cc(=O)[nH]1` (stereo not drawn) [Example 36c, 2-{2-[(−)-6-fluoro-2-methyl-2,3-dihydro-1H-indol-1-yl]-2-oxoethyl}-6-(morpholin-4-yl)pyrimidin-4(3H)-one], which IC50 is on record?
The IC50 was 9 nM.

`O=C(Cc1nc(N2CCOCC2)cc(=O)[nH]1)N1c2ccccc2CC1CF` (stereo not drawn) [Example 40d, 2-[2-((−)-2-Fluoromethyl-2,3-dihydroindol-1-yl)-2-oxoethyl]-6-morpholin-4-yl-3H-pyrimidin-4-one] was tested. Which IC50 did it give?
The IC50 was 13 nM.
